Results on one compound are retold here after ChEMBL document CHEMBL1649153, “Population pharmacokinetics of high-dose, prolonged-infusion cefepime in adult critically ill patients with ventilator-associated pneumonia” (Antimicrob Agents Chemother, 2009).

In one data set the test system is Serum. In words: Serum creatinine level in critically ill patient with ventilator-associated pneumoniae at […] administered as 3 hr infusion every 8 hrs by HPLC. The class given is ADME, organism-based. The following applies: human, in vivo, iv.
The next data set deals with Homo sapiens. In words: Toxicity in critically ill patient with ventilator-associated pneumoniae assessed as adverse effects at […] administered as 3 hr infusion every 8 hrs by HPLC. It is filed as organism-based. The following applies: in vivo, iv.

With `CO/N=C(\C(=O)N[C@@H]1C(=O)N2C(C(=O)[O-])=C(C[N+]3(C)CCCC3)CS[C@H]12)c1csc(N)n1` [CEFEPIME], the serum creatinine with Serum amounted to 0.8 mg/dL. For the same compound, in the data set with Homo sapiens, the Activity entry is “Non-toxic”.
